Consider 14 compounds from paper PMC7344389, “Discovery of Anti-Amoebic Inhibitors from Screening the MMV Pandemic Response Box on Balamuthia mandrillaris, Naegleria fowleri, and Acanthamoeba castellanii” (Pathogens, 2020).

Values joined by “and” are separate entries in the source; they are usually repeats but may differ in a detail not shown here. Equal entries are not always repeated. Where two headings read alike, the source gives them in different places.

Holding throughout (format): cell-based
Experiment [1] has as its system Acanthamoeba castellanii trophozoites. Nature of the experiment: CellTiter-Glo 2.0 trophocidal assay, A. castellanii. The following applies: for IC50: CTG method, 72 h, duplicate twofold serial dilutions from 10 µM, mean ± SD; for Selectivity Index (A549 IC50/A. castellanii IC50): SI = (IC50 A549)/(IC50 Amoeba); for potency against A. castellanii, in words: dose-response, CTG. Here is the method: This isolate was also purchased from ATCC. Trophozoites were routinely grown axenically at 27 °C in Protease Peptone-Glucose Media (PG) in non-vented 75 cm^2 tissue culture flasks (Olympus, El Cajon, CA, USA), until the cells were 80–90% confluent. For sub-culturing, cells were mechanically harvested to detach the cells from the culture flasks. The cells were collected by centrifugation at 4000 rpm at 4 °C.
The trophocidal activity of compounds was assessed using the CellTiter-Glo 2.0 luminescent viability assay (Promega, Madison, WI, USA), as previously described. Trophozoites were routinely cultured as described above and only logarithmic trophozoites were used. […] Initially all compounds were assessed in a single-point drug screen at 10 and 1 μM, as previously described. […] We used this process to reduce the number of potential false positives. Drugs were cherry-picked, dissolved in the media specific to each parasite, and assessed in twofold serial dilutions from the highest concentration of 10 μM. All assays were incubated at each of the parasites’ representative growth temperatures, described above, for 72 h. At the 72 h time point, 25 μL of CellTiter-Glo 2.0 reagent was added to all wells of the 96-well plates using the Biomek NX^P automated workstation. The plates were protected from light and contents were mixed using an orbital shaker at 300 rpm at room temperature for 2 min to induce cell lysis. After shaking, the plates were equilibrated at room temperature for 10 min to stabilize the luminescent signal. The adenosine triphosphate (ATP) luminescent signal (relative light units; RLUs) was measured at 490 nm with a SpectraMax I3X plate reader (Molecular Devices, Sunnyvale, CA, USA). Drug inhibitory concentration (IC50) curves were generated using total ATP RLUs, where controls were calculated as the average of replicates using the Levenberg–Marquardt algorithm, using DMSO as the normalization control, as defined in Collaborative Drug Discovery Inc. (CDD) Vault (Burlingame, CA, USA). Values reported are from a minimum of two biological replicates with standard deviations.
Background: In ATP-based viability assays light output follows the ATP content of the culture.

The test system of experiment [2] is A549 human lung carcinoma cells. The experiment is described as follows: MTS cytotoxicity counter-screen of reconfirmed hits. Here is the method:
Cytotoxicity of the reconfirmed hits was determined by using the CellTiter 96® AQueous One Solution Cell Proliferation Assay (Promega, Madison, WI) on A549 human lung carcinoma cells. A549 cells were seeded at a concentration of 1.6 × 10^4 cells/mL in 96-well tissue culture plates (Corning, NY, USA), in the presence of serially diluted active hits against B. mandrillaris, N. fowleri, or A. castellanii. Positive control wells contained cells and media; negative control wells contained 0.1% DMSO. Cells were grown in F12K medium supplemented with 10% FBS and 1% gentamycin (all supplied from Fisher Scientific, Atlanta, GA, USA). The inhibitor concentration started at 10 µM and was diluted in doubling dilutions to assess cytotoxicity in comparison to the respective free-living amoeba. Total volume of each well was 100 µL and plates were incubated at 37 °C, 5% CO2 for 72 h. Next, 4 h before the time-point, 20 µL of MTS (Promega, Madison, WI, USA) was added to each well. Inhibition of A549 growth was assessed at the 72 h time-point measuring the optical density (OD) values at 490 nm using a SpectraMax I3X plate reader (Molecular Devices, Sunnyvale, CA, USA). Curve fitting using non-linear regression was carried out using the average of replicates and the Levenberg–Marquardt algorithm, using DMSO as the normalization control, as defined in CDD Vault (Burlingame, CA, USA).
For orientation: A counterscreen serves to expose hits that act by an unwanted route or on another target.

The subject of experiment [3] is Balamuthia mandrillaris trophozoites. Nature of the experiment: CellTiter-Glo 2.0 trophocidal assay, B. mandrillaris. The following applies: for IC50: 72 h, CTG method, duplicate twofold serial dilutions from 10 µM, mean ± SD; for Selectivity Index (A549 IC50/B. mandrillaris IC50): SI = (IC50 A549)/(IC50 Amoeba); for potency against B. mandrillaris, in words: dose-response, CTG. As to the method:
Pathogenic Balamuthia mandrillaris (CDC:[…]; American Type Culture Collection (ATCC) 50209), a GAE isolate, isolated from a pregnant baboon at the San Diego Zoo in 1986 was donated by Luis Fernando […] University, Mexico [43]. Trophozoites were routinely grown axenically in Balamuthia mandrillaris Itson (BMI) media at 37 °C, 5% CO2 in vented 75 cm^2 tissue culture flasks (Olympus, El Cajon, CA, USA), until the cells were 80-90% confluent. For sub-culturing, 0.25% Trypsin-EDTA (Gibco, Gaithersburg, MD, USA) cell detachment reagent was used to detach the cells from the culture flasks. The cells were collected by centrifugation at 4000 rpm at 4 °C. Complete BMI media is produced by the addition of 10% fetal bovine serum (FBS) and 125 μg of penicillin/streptomycin antibiotics. The trophocidal activity of compounds was assessed using the CellTiter-Glo 2.0 luminescent viability assay (Promega, Madison, WI, USA), as previously described. Trophozoites were routinely cultured as described above and only logarithmic trophozoites were used. […] Inhibitors were assessed for percent inhibition using the criteria of ≤33% growth inhibition (no inhibition), 33-67% growth inhibition (moderate inhibition), and ≥67% growth inhibition (strong inhibition). […] We used this process to reduce the number of potential false positives. […] All assays were incubated at each of the parasites' representative growth temperatures, described above, for 72 h. At the 72 h time point, 25 μL of CellTiter-Glo 2.0 reagent was added to all wells of the 96-well plates using the Biomek NX^P automated workstation. The plates were protected from light and contents were mixed using an orbital shaker at 300 rpm at room temperature for 2 min to induce cell lysis. After shaking, the plates were equilibrated at room temperature for 10 min to stabilize the luminescent signal. The adenosine triphosphate (ATP) luminescent signal (relative light units; RLUs) was measured at 490 nm with a SpectraMax I3X plate reader (Molecular Devices, Sunnyvale, CA, USA). Drug inhibitory concentration (IC50) curves were generated using total ATP RLUs, where controls were calculated as the average of replicates using the Levenberg-Marquardt algorithm, using DMSO as the normalization control, as defined in Collaborative Drug Discovery Inc. (CDD) Vault (Burlingame, CA, USA). Values reported are from a minimum of two biological replicates with standard deviations.

Where [4] appears, read: Homo sapiens, A549, MTS assay, 72 h, doubling dilutions from 10 µM, read-out: A549 Mean IC50.
[5] abbreviates: MTS assay, 72 h, doubling dilutions from 10 µM, read-out: A549 Mean IC50.

A word on the IC50: it is the concentration that inhibits the measured activity by half.

With `CCCCC(CC)CNC(=N)NC(=N)NCCCCCCNC(=N)NC(=N)NCC(CC)CCCC` (stereo not shown) [Alexidine], the IC50 was 2.4 ± 1.56 µM in experiment [1], ≤ 10 µM in experiment [1] (listed as alexidine) and 2.1 µM in experiment [2] (setting [4]). In experiment [1], the “Selectivity Index (A549 IC50/A. castellanii IC50)” value amounted to 0.88.

For `CCC(C)(C)c1ccc(CC(C)CN2C[C@@H](C)O[C@@H](C)C2)cc1` (stereo partly shown) [Amorolfine], the IC50 in experiment [1] is 1.63 ± 1.62 µM; in experiment [1] (listed as amorolfine) it was ≤ 10 µM; in experiment [2] (setting [4]) it was > 10 µM. In addition, the “Selectivity Index (A549 IC50/A. castellanii IC50)” value in experiment [1] was ≥6.13.

On to `Clc1ccc(Cn2c(CN3CCCC3)nc3ccccc32)cc1` [Clemizole], for which the IC50 is ≤ 10 µM in experiment [3] (Balamuthia mandrillaris), 8.95 ± 1.48 µM in experiment [3] and > 10 µM in experiment [2] (setting [4]). Also, the “Selectivity Index (A549 IC50/B. mandrillaris IC50)” value in experiment [3] is on record as ≥1.12.

As to `O=[N+]([O-])/C(Br)=C/c1ccc(Br)o1` [Furvina], the IC50 in experiment [1] was 4.2 ± 0.85 µM; in experiment [1] (listed as furvina), ≤ 10 µM; in experiment [2] (setting [5]), > 10 µM.

Regarding `CNCC(=O)OCc1cccnc1N(C)C(=O)OC(C)[n+]1cnn(C[C@](O)(c2cc(F)ccc2F)[C@@H](C)c2nc(-c3ccc(C#N)cc3)cs2)c1` (stereo partly shown) [Isavuconazonium], the IC50 in experiment [1] (Acanthamoeba castellanii) is 0.09 ± 0.02 µM; in experiment [2] (setting [4]), > 10 µM. Besides, the “Selectivity Index (A549 IC50/A. castellanii IC50)” value in experiment [1] is ≥105; in experiment [1] (listed as isavuconazonium) it was ≥ 10. Moreover, the “potency against A. castellanii, in words” value in experiment [1] is recorded as “nanomolar potency”.

For the compound `CC(=O)N1CCN(c2ccc(OCC3COC(Cn4ccnc4)(c4ccc(Cl)cc4Cl)O3)cc2)CC1` (stereo not shown) [Ketoconazole], the IC50 was 1.24 ± 0.8 µM in experiment [1], ≤ 10 µM in experiment [1] (listed as ketoconazole) and > 10 µM in experiment [2] (setting [4]).

With `CCc1nc(N)nc(N)c1C#CC(C)c1cc(OC)cc(-c2ccncc2)c1` (stereo not shown) [MMV1580844], in experiment [3], 0.53 ± 0.11 µM corresponded to half-maximal inhibition (IC50) and the “potency against B. mandrillaris, in words” value is recorded as “nanomolar potency”. Moreover, in experiment [2] (setting [5]), the IC50 is > 10 µM.

As to `C(=C\c1nc2ccccc2[nH]1)/c1ccc2c(c1)OCO2` [MMV1582495], the IC50 in experiment [3] is 0.54 ± 0.04 µM; in experiment [2] (setting [5]) it was > 10 µM. In experiment [3], the “potency against B. mandrillaris, in words” value was “nanomolar potency”.

As to `N#Cc1c(F)c(Cl)c(NCc2ccccc2)c(C#N)c1F` [MMV1582496], in experiment [1], the IC50 was determined as 0.61 ± 0.35 µM and the “potency against A. castellanii, in words” value is recorded as “nanomolar potency”. In experiment [2] (setting [5]), the IC50 is > 10 µM.

Take `Cc1ccc(N2CCC(CCOc3ccc(S(C)(=O)=O)cc3)CC2)nn1` [MMV1634394]: the IC50 is ≤ 10 µM and 8.05 µM in experiment [3]; > 10 µM in experiment [2] (setting [5]).

On to `Cc1nc2ccc(Oc3ccccc3)cc2c2c1CCN2CCc1ccccc1` [MMV1634399], for which the IC50 in experiment [3] is 0.73 ± 0.28 µM; in experiment [2] (setting [5]) it was > 10 µM. In addition, in experiment [3], the “potency against B. mandrillaris, in words” value is on record as “nanomolar potency”.

`O=C(/C=C\n1cnc(-c2cc(C(F)(F)F)cc(C(F)(F)F)c2)n1)NNc1cnccn1` [Selinexor]: the figures for the IC50 in experiment [3] (Balamuthia mandrillaris), in experiment [3] and in experiment [2] (setting [4]) were ≤ 10 µM, 9.2 ± 1.13 µM and > 10 µM, respectively. The “Selectivity Index (A549 IC50/B. mandrillaris IC50)” value in experiment [3] is on record as ≥1.09.

Turning to `O=C(O)C(F)(F)F` [Trifluoroacetic acid], the IC50 is 1.97 ± 1 µM in experiment [1]; ≤ 10 µM in experiment [1] (listed as trifluoroacetic acid); > 10 µM in experiment [2] (Homo sapiens, A549, 72 h, read-out: A549 Mean IC50 (µM)). Besides, in experiment [1], the “Selectivity Index (A549 IC50/A. castellanii IC50)” value is given as ≥5.10.

Take `CN1CCN(Cc2ccc(-c3cnc4[nH]cc(-c5ccc6[nH]ccc6c5)c4c3)cc2)CC1` [URMC-099-C]: the IC50 in experiment [3] (Balamuthia mandrillaris) was ≤ 10 µM; in experiment [3], 5.35 ± 1.63 µM; in experiment [2] (setting [4]), 4.2 µM. Also, the “Selectivity Index (A549 IC50/B. mandrillaris IC50)” value in experiment [3] stood at 0.79.
